Laboratory results: patent US10336724B2, “D-amino acid oxidase inhibitors and therapeutic uses thereof” (SyneuRx International (Taiwan) Corp., priority 2017, dated 2019)

Assays:
[1] = target: pkDAAO (porcine kidney DAAO) (Sus scrofa (Pig), UniProt P00371); assay: pkDAAO (porcine kidney DAAO) activity, D-Proline substrate, OPD OD450; format: biochemical
Procedure: The pkDAAO (porcine kidney DAAO) activity was measured by using D-Proine as a substrate to produce hydrogen peroxide (H2O2). The produced H2O2 would be oxidized by peroxidase, and the produced free radicals would further react with 1,2-Phenylenediamine (OPD) reagent. […] The OD450 would be measured to represent the activity of pkDAAO. All compounds were dissolved in DMSO. Each compound was diluted with DMSO in 3 or 4-fold serial dilution to create a 9-point dose response curve. Each sample was added in triplicate, 10 μL/well, into 96-well assay microplate. Positive control wells were added with 10 μL of DMSO. The diluted compounds were incubated with pkDAAO in dark for 10 minutes and then reacted with D-Proline. The final reaction mixture was composed of 0.01 U/mL pkDAAO, 0.03% OPD, 25 U/mL HRP and 40 mM D-Proline in PBS. The reaction plates were then incubated in the dark at room temperature. The OD450 absorbance readout was detected at 0 and 20 minute by Molecular Device Spectra Max Plus reader. The percentage of inhibition values for each well were calculated with the following equation: The percentage of inhibition=(OD450sample, 20 min−OD450sample, 0 min)/(OD450DMSO, 20 min−OD450DMSO, 0 min)×100%
(§1) The nonlinear curve fitting model in GraphPad Prism 5 was used to calculate IC50 value for each compound.

hDAAO (human DAAO) = hDAAO (human DAAO) (Homo sapiens (Human), UniProt P14920); assay: hDAAO (human DAAO) activity, D-serine substrate, Amplex Red fluorescence; format: biochemical
Procedure: The hDAAO (human DAAO) activity was measured by using D-serine as a substrate to produce H2O2. The produced H2O2 would be oxidized by peroxidase, and the produced free radicals would further react with Amplex Red reagent to emit fluorescence. The intensity of fluorescence at 590 nm would be measured to represent the activity of hDAAO. All compounds were dissolved in DMSO. Each compound was diluted with DMSO in 3-fold serial dilution to create a 9-point dose response curve. Each sample was added in triplicate, 1 μL/well, into 96-well black plates. Positive control wells were added with 1 μL of DMSO. Then 49 μL of assay buffer (100 mM Tris-HCl, pH 8.5) containing 1.2 ng/mL hDAAO, 900 nM FAD, 0.2 units/mL HRP, and 100 μM Amplex Red was added to each well of the plate using a multichannel pipette. Next, 50 μL of 100 mM D-Serine in assay buffer was added. The reaction plates were then incubated in the dark at room temperature. The fluorescence readout was detected at 0 and 20 minute by Molecular Device Gemini EM fluorescence reader using the following settings: excitation filter 530 nm, and emission filter 590 nm. The percentage of inhibition values for each well was calculated with the following equation: The percentage of inhibition=(fluorescencesample, 20 min−fluorescencesample, 0 min)/(fluorescenceDMSO, 20 min−fluorescenceDMSO, 0 min)×100%
as §1

Chain of hDAAO (human DAAO) (P14920 whole entry): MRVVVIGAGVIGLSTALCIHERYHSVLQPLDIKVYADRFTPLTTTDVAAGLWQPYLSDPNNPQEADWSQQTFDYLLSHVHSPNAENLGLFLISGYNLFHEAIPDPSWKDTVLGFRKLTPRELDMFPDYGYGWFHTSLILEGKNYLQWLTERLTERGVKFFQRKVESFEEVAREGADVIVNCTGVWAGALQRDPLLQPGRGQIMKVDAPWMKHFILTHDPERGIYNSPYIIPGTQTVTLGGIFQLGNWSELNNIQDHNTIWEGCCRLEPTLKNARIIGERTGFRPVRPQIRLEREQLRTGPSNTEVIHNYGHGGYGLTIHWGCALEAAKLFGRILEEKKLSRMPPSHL
Chain of pkDAAO (porcine kidney DAAO) (P00371 whole entry): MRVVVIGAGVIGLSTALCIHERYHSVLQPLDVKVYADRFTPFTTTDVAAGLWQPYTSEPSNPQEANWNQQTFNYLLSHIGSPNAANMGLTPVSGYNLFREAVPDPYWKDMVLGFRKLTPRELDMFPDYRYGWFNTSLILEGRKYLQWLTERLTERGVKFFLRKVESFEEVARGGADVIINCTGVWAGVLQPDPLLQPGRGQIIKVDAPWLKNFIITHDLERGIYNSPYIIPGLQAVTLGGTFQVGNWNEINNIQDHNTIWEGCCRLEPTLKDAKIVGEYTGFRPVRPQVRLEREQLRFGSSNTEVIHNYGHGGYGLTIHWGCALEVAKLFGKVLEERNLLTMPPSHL

| Structure (SMILES) | IC50 [1] | IC50 (hDAAO (human DAAO)) |
| --- | --- | --- |
| O=C(Oc1cc(Cc2cccc3ccccc23)n[nH]c1=O)c1cc(CCc2ccccc2Cl)n[nH]1 | 10 to 100 nM | 100 to 500 nM |
| O=C(Oc1cc2c(Cl)cccc2[nH]c1=O)c1cc(CCc2ccc(Cl)cc2)n[nH]1 [Compound 32, 5-chloro-2-oxo-1,2-dihydroquinolin-3-yl 3-(4-chlorophenethyl)-1H-pyrazole-5-carboxylate] | 100 to 500 nM | 100 to 1000 nM |
| O=C(Oc1cc(Cc2cccc3ccccc23)n[nH]c1=O)c1cc(CCc2cccc(Cl)c2)n[nH]1 [Compound 67, 6-(naphthalen-1-ylmethyl)-3-oxo-2,3-dihydropyridazin-4-yl 3-(3-chlorophenethyl)-1H-pyrazole-5-carboxylate] | 10 to 100 nM | 100 to 500 nM |
| O=C(Oc1cc(CCc2cccc3ccccc23)n[nH]c1=O)c1cc(CCc2ccccc2)n[nH]1 | 10 to 100 nM | 100 to 500 nM |
| O=C(Oc1coc(CO)cc1=O)c1cc2occc2[nH]1 [Compound 9, 6-(hydroxymethyl)-4-oxo-4H-pyran-3-yl 4H-furo[3,2-b]pyrrole-5-carboxylate] | 10000 to 100000 nM | 1000 to 10000 nM |
| O=C(Oc1cc(Cc2cccc3ccccc23)n[nH]c1=O)c1cc(Cc2ccccc2)n[nH]1 [Compound 77, 6-(naphthalen-1-ylmethyl)-3-oxo-2,3-dihydropyridazin-4-yl 3-benzyl-1H-pyrazole-5-carboxylate] | 10 to 100 nM | 100 to 1000 nM |
| O=C(Oc1cc(Cc2cccc3ccccc23)n[nH]c1=O)c1cc(CCc2ccccc2)n[nH]1 [Compound 62, 6-(naphthalen-1-ylmethyl)-3-oxo-2,3-dihydropyridazin-4-yl 3-phenethyl-1H-pyrazole-5-carboxylate] | 10 to 100 nM | 100 to 1000 nM |
| O=C(Oc1coc(CO)cc1=O)c1cc(CCc2ccc(Cl)cc2)c[nH]1 [Compound 5, 6-(hydroxymethyl)-4-oxo-4H-pyran-3-yl 4-(4-chlorophenethyl)-1H-pyrrole-2-carboxylate] | 10000 to 100000 nM | 10000 to 100000 nM |
| O=C(Oc1cc(Cc2cccc3ccccc23)n[nH]c1=O)c1cc(CCc2ccc(F)cc2)n[nH]1 [Compound 72, 6-(naphthalen-1-ylmethyl)-3-oxo-2,3-dihydropyridazin-4-yl 3-(4-fluorophenethyl)-1H-pyrazole-5-carboxylate] | 10 to 100 nM | 100 to 500 nM |
| O=C(Oc1cc(Cc2ccc3ccccc3c2)n[nH]c1=O)c1cc(CCc2ccccc2)n[nH]1 | 10 to 100 nM | 100 to 500 nM |

More lines, now with the values ahead:

| IC50 [1] | IC50 (hDAAO (human DAAO)) | Structure (SMILES) |
| --- | --- | --- |
| 100 to 1000 nM | 1000 to 10000 nM | O=C(Oc1cc(CSc2ccc(Cl)c(Cl)c2)c[nH]c1=O)c1cc(CCc2ccccc2)n[nH]1 [Compound 49, 5-(((3,4-dichlorophenyl)thio)methyl)-2-oxo-1,2-dihydropyridin-3-yl 3-phenethyl-1H-pyrazole-5-carboxylate] |
| 100 to 1000 nM | 100 to 500 nM | O=C(Oc1cc2c(Cl)cccc2[nH]c1=O)c1cc(CCc2ccccc2)n[nH]1 [Compound 27, 5-chloro-2-oxo-1,2-dihydroquinolin-3-yl 3-phenethyl-1H-pyrazole-5-carboxylate] |
| 10000 to 100000 nM | 1000 to 10000 nM | O=C(Oc1coc(CSc2ccc(Cl)cc2)cc1=O)c1cc(CCc2ccc(Cl)cc2)c[nH]1 [Compound 14, 6-(((4-chlorophenyl)thio)methyl)-4-oxo-4H-pyran-3-yl 4-(4-chlorophenethyl)-1H-pyrrole-2-carboxylate] |
| 1000 to 10000 nM | 100 to 500 nM | O=C(Oc1cc2c(Cl)cccc2[nH]c1=O)c1cc(CCc2ccc(Cl)cc2)c[nH]1 [Compound 18, 5-chloro-2-oxo-1,2-dihydroquinolin-3-yl 4-(4-chlorophenethyl)-1H-pyrrole-2-carboxylate] |
| 1000 to 10000 nM | 1000 to 10000 nM | O=C(Oc1cc(CSc2ccc(Cl)c(Cl)c2)c[nH]c1=O)c1cc(CCc2ccccc2)c[nH]1 [Compound 50, 5-(((3,4-dichlorophenyl)thio)methyl)-2-oxo-1,2-dihydropyridin-3-yl 4-phenethyl-1H-pyrrole-2-carboxylate] |
